In patent US20110152316A1, “3,4-SUBSTITUTED PIPERIDINE DERIVATIVES AS RENIN INHIBITORS” (priority 2008, published 2011):

Assays:
[1] = target: T1, recombinant renin in human plasma (Homo sapiens, UniProt P00797); assay: Inhibition of renin in human plasma; type: biochemical; details: human EDTA plasma, 37° C., 1 hour
T1 construct: purchased Proteos
T1 sequence (P00797 67-406): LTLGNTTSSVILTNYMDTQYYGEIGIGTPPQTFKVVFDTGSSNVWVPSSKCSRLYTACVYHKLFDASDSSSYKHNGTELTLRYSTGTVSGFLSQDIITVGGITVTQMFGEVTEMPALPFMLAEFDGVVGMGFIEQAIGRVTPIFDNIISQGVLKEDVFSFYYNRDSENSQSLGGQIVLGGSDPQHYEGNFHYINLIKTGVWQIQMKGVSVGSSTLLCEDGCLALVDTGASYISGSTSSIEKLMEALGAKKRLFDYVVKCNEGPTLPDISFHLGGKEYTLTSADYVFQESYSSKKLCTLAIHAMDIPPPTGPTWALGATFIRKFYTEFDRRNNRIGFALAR
Protocol: Human EDTA-collected plasma is rapidly thawed in warm water and centrifuged at 2900 g for 15 minutes at 4° C. The supernatant is collected and recombinant renin (Proteos) is added at a final concentration of 1 nM. The plasma is transferred to a Costar black 384 well plate (#3573). Renin inhibitors are added from a 17.5 fold concentrated DMSO solution and pre-incubated at 37° C. for 10 minutes. The internally-quench fluorescent peptide QXL520™-Lys-His-Pro-Phe-His-Leu-Val-Ile-His-Lys (5-FAM) (Anaspec), SEQ ID NO: 2, is diluted in 3M Tris pH 7.2, 200 mM EDTA and added to the plasma. The final concentrations are: 6 μM substrate, 342 mM Tris, 23 mM EDTA. The plate is incubated at 37° C. for 1 hour. The plate is read in a SpectraMax Gemini EM reader set at an excitation wavelength of 490 nm and an emission wavelength of 520 nm at times 0 and 1 hour. Background fluorescence at t=0 is subtracted from the measurement at t=1 hour. Inhibitory activity of the compounds is expressed as IC50.

[2] = target: T2, Human recombinant renin (Homo sapiens, UniProt P00797); assay: Inhibition of human recombinant renin (buffer); type: biochemical; details: 50 mM MOPS pH 7.4, 37° C., 3 hours
T2 construct: purchased Proteos
T2 sequence (P00797 67-406): T1 sequence (P00797 67-406)
Protocol: Human recombinant renin (Proteos) in 50 mM MOPS pH 7.4, 100 mM NaCl, 0.002% Tween 20 at a final concentration of […] is incubated with inhibitors from a 50 fold concentrated DMSO solution and 6 μM of an internally-quench fluorescent peptide: DNP-Lys-His-Pro-Phe-His-Leu-Val-Ile-His-D,L-Amp (SEQ ID NO: 1); Paschalidou K. et al., Biochem J., 2004, 382, 1031). The reactions take place in a Costar 384 well black plate (#3573) at 37° C. for 3 hours. Fluorescence is measured at times 0 and 3 hours with a SpectraMax Gemini EM reader set at an excitation wavelength of 328 nm and at an emission wavelength of 388 nm. Background fluorescence at t=0 is subtracted from the measurement at t=3 hours. Inhibitory activity of the compounds is expressed as IC 50.

COCCCc1cc(CN(C(=O)[C@@H]2CNCC[C@H]2c2cc(=O)n(C)c3ccccc23)C2CC2)cc(OCCOC)c1 (relative stereo) [Example 1, trans-N-Cyclopropyl-4-(1-methyl-2-oxo-1,2-dihydro-4-quinolinyl)-N-({3-{[2-(methyloxy)ethyl]oxy}-5-[3-(methyloxy)propyl]phenyl}methyl)-3-piperidinecarboxamide]
IC50 [1]: 39 nM | IC50 [2]: 13 nM

COCCCc1cc(CN(C(=O)[C@@H]2CNCC[C@H]2c2cc(=O)n(C)c3cc(Cl)ccc23)C2CC2)cc(OCCOC)c1 (relative stereo) [Example 2, trans-4-(7-Chloro-1-methyl-2-oxo-1,2-dihydro-4-quinolinyl)-N-cyclopropyl-N-({3-{[2-(methyloxy)ethyl]oxy}-5-[3-(methyloxy)propyl]phenyl}methyl)-3-piperidinecarboxamide]
IC50 [1]: 7.6 nM | IC50 [2]: 2.2 nM
